# Reference: article PMC10176470, “Engaging a Non-catalytic Cysteine Residue Drives Potent and Selective Inhibition of Caspase-6” (Journal of the American Chemical Society, 2023)
# Key:
# Assay in all cases: SILAC proteomics / in-gel fluorescence, competition of probe 13-t labeling by 3a
# [1] = target: proteins of HEK293T cells transiently overexpressing caspase-6 (Homo sapiens, UniProt O00299); conditions: Comp; protein CLIC1 O00299
# [2] = target: T1, proteins of HEK293T cells transiently overexpressing caspase-6 (Homo sapiens, UniProt O60506)
# T1 sequence (O60506 1-623): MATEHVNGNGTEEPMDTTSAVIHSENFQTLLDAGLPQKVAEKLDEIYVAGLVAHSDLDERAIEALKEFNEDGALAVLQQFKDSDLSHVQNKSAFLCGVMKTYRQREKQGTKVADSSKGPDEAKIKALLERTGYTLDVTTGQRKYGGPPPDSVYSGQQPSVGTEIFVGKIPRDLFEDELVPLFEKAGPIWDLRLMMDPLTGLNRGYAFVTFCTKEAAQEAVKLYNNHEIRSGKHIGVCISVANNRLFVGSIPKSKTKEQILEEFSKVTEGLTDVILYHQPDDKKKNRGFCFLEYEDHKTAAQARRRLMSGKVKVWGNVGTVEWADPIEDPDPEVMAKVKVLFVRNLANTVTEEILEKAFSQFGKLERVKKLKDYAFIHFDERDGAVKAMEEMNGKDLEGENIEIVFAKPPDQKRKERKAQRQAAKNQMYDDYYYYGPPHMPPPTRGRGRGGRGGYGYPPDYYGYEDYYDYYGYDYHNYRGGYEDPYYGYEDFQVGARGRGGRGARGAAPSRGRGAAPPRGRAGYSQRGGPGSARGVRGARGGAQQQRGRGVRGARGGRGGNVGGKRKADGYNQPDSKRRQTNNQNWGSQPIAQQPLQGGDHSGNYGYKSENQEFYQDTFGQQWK
# [3] = target: proteins of HEK293T cells transiently overexpressing caspase-6 (Homo sapiens, UniProt P05141); conditions: Comp; protein SLC25A5 P05141
# Sequence of proteins of HEK293T cells transiently overexpressing caspase-6 (Homo sapiens, UniProt P05141) (P05141 whole entry): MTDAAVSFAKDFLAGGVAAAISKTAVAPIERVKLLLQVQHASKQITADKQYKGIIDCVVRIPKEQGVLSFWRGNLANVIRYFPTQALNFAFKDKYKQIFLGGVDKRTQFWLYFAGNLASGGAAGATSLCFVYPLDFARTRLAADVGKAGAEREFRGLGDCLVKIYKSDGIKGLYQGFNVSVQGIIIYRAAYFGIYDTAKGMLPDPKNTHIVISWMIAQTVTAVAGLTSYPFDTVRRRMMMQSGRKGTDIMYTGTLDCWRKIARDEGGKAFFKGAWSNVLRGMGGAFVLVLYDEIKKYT
# [4] = target: proteins of HEK293T cells transiently overexpressing caspase-6 (Homo sapiens, UniProt P06733); conditions: Comp; protein ENO1 P06733
# Sequence of proteins of HEK293T cells transiently overexpressing caspase-6 (Homo sapiens, UniProt P06733) (P06733 whole entry): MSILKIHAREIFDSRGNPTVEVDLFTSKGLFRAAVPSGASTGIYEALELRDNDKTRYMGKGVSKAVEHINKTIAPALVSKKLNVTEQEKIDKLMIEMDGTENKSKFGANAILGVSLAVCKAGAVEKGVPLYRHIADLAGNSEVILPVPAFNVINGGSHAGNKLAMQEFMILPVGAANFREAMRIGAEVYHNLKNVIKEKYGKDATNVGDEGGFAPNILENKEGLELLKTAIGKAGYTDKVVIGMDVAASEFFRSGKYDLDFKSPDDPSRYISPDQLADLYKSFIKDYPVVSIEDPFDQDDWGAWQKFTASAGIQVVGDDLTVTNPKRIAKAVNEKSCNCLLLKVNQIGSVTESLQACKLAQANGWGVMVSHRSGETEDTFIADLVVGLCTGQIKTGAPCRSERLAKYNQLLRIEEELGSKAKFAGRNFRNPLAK
# [5] = target: proteins of HEK293T cells transiently overexpressing caspase-6 (Homo sapiens, UniProt P08238); conditions: Comp; protein HSP90AB1 P08238
# Sequence of proteins of HEK293T cells transiently overexpressing caspase-6 (Homo sapiens, UniProt P08238) (P08238 whole entry): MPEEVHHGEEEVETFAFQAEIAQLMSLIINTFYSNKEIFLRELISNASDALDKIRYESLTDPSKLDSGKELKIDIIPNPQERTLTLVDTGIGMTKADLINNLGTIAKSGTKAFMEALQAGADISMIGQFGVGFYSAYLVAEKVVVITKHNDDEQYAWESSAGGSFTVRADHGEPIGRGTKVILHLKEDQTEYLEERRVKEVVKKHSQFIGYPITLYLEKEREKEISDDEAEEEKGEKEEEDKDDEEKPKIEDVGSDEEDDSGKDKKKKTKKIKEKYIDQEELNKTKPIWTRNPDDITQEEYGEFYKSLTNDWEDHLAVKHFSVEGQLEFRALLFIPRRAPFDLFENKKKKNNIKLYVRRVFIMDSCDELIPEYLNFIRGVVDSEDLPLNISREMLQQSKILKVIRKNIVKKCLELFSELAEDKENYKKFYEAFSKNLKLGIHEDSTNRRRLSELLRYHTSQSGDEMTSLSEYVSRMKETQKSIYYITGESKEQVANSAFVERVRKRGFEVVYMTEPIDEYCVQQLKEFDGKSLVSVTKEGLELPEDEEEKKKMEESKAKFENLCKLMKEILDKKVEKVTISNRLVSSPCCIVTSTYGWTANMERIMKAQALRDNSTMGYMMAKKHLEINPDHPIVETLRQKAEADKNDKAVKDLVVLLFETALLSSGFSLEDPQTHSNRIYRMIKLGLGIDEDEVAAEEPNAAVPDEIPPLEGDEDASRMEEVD
# [6] = target: proteins of HEK293T cells transiently overexpressing caspase-6 (Homo sapiens, UniProt P09211)
# Sequence of proteins of HEK293T cells transiently overexpressing caspase-6 (Homo sapiens, UniProt P09211) (P09211 whole entry): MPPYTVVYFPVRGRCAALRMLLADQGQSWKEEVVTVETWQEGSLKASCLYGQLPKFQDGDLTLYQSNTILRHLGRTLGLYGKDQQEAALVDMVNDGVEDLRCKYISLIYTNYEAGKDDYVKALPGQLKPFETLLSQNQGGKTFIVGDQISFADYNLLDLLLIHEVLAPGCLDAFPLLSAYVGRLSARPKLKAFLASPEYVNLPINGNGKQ
# [7] = target: proteins of HEK293T cells transiently overexpressing caspase-6 (Homo sapiens, UniProt P23526); conditions: Comp; protein AHCY P23526
# Sequence of proteins of HEK293T cells transiently overexpressing caspase-6 (Homo sapiens, UniProt P23526) (P23526 whole entry): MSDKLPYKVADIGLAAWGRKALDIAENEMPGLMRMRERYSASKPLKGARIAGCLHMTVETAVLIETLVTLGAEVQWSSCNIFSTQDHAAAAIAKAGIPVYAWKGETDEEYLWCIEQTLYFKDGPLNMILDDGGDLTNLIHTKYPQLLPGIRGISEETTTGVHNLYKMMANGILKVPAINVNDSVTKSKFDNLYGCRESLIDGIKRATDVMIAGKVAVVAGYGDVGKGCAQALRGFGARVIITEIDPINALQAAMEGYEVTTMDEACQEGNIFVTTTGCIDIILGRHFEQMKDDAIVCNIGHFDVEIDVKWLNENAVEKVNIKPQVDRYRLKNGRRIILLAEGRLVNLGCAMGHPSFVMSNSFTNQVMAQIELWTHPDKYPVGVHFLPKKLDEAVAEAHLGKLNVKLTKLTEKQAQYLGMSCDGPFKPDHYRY
# [8] = target: T2, proteins of HEK293T cells transiently overexpressing caspase-6 (Homo sapiens, UniProt P25789)
# T2 sequence (P25789 1-261): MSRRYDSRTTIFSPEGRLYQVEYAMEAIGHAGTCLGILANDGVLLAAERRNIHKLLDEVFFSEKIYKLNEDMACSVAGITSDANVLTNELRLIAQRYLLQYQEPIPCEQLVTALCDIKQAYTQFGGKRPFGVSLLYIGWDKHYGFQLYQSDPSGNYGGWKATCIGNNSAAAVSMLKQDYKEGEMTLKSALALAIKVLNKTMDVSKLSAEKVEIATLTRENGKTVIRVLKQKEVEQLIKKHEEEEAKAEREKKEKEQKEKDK
# [9] = target: proteins of HEK293T cells transiently overexpressing caspase-6 (Homo sapiens, UniProt P31939); conditions: Comp; protein ATIC P31939
# Sequence of proteins of HEK293T cells transiently overexpressing caspase-6 (Homo sapiens, UniProt P31939) (P31939 whole entry): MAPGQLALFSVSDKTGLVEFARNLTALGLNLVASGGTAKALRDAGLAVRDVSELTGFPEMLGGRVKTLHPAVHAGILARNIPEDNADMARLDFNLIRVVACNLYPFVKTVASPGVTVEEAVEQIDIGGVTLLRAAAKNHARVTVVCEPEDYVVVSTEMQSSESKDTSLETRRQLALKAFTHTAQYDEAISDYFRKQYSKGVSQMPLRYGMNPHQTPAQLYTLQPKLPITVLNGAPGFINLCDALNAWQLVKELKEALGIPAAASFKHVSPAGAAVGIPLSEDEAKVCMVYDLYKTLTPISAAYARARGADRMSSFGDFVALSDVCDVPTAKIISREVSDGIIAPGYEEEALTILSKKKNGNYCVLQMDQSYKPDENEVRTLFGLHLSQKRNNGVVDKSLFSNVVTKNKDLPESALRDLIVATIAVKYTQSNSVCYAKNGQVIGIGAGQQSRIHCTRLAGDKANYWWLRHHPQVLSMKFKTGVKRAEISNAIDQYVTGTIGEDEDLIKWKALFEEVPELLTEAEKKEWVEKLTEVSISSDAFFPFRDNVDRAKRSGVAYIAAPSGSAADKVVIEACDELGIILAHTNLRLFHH
# [10] = target: proteins of HEK293T cells transiently overexpressing caspase-6 (Homo sapiens, UniProt P31943); conditions: Comp; protein HNRNPH1 P31943
# Sequence of proteins of HEK293T cells transiently overexpressing caspase-6 (Homo sapiens, UniProt P31943) (P31943 whole entry): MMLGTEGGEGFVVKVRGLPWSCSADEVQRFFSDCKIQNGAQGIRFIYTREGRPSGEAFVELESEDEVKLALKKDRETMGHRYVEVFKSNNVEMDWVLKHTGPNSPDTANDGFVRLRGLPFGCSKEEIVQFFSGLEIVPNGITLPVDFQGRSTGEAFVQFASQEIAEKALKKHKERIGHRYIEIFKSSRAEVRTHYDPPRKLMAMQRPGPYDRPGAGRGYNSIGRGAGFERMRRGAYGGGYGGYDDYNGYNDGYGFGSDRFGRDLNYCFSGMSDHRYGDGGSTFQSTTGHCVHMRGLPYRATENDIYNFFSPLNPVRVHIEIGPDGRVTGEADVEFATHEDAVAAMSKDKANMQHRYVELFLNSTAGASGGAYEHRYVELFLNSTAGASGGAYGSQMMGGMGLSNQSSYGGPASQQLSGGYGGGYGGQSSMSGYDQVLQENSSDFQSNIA
# [11] = target: proteins of HEK293T cells transiently overexpressing caspase-6 (Homo sapiens, UniProt P33992); conditions: Comp; protein MCM5 P33992
# Sequence of proteins of HEK293T cells transiently overexpressing caspase-6 (Homo sapiens, UniProt P33992) (P33992 whole entry): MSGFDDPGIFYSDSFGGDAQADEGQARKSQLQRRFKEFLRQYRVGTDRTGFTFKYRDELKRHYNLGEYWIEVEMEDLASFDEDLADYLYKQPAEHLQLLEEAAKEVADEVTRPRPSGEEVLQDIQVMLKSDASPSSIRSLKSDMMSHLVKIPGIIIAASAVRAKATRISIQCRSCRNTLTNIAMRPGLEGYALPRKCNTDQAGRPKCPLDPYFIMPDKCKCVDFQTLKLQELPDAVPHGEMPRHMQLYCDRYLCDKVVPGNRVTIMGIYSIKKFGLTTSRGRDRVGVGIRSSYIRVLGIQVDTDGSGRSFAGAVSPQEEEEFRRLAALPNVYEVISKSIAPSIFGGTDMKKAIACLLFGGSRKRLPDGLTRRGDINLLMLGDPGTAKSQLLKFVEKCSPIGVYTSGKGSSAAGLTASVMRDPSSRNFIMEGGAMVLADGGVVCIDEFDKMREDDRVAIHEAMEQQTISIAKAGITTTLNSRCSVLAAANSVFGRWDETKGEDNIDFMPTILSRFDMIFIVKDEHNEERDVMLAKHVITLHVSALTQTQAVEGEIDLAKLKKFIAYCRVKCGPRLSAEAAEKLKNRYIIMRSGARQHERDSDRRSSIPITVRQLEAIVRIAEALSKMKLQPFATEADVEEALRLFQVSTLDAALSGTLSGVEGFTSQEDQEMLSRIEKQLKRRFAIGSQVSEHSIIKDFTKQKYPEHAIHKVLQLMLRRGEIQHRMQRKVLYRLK
# [12] = target: proteins of HEK293T cells transiently overexpressing caspase-6 (Homo sapiens, UniProt P62906); conditions: Comp; protein RPL10A P62906
# [13] = target: proteins of HEK293T cells transiently overexpressing caspase-6 (Homo sapiens, UniProt Q07020); conditions: Comp; protein RPL18 Q07020
# [14] = target: proteins of HEK293T cells transiently overexpressing caspase-6 (Homo sapiens, UniProt Q86VP6); conditions: Comp; protein CAND1 Q86VP6
# [15] = target: proteins of HEK293T cells transiently overexpressing caspase-6 (Homo sapiens, UniProt Q99460)
# Sequence of proteins of HEK293T cells transiently overexpressing caspase-6 (Homo sapiens, UniProt Q99460) (Q99460 whole entry): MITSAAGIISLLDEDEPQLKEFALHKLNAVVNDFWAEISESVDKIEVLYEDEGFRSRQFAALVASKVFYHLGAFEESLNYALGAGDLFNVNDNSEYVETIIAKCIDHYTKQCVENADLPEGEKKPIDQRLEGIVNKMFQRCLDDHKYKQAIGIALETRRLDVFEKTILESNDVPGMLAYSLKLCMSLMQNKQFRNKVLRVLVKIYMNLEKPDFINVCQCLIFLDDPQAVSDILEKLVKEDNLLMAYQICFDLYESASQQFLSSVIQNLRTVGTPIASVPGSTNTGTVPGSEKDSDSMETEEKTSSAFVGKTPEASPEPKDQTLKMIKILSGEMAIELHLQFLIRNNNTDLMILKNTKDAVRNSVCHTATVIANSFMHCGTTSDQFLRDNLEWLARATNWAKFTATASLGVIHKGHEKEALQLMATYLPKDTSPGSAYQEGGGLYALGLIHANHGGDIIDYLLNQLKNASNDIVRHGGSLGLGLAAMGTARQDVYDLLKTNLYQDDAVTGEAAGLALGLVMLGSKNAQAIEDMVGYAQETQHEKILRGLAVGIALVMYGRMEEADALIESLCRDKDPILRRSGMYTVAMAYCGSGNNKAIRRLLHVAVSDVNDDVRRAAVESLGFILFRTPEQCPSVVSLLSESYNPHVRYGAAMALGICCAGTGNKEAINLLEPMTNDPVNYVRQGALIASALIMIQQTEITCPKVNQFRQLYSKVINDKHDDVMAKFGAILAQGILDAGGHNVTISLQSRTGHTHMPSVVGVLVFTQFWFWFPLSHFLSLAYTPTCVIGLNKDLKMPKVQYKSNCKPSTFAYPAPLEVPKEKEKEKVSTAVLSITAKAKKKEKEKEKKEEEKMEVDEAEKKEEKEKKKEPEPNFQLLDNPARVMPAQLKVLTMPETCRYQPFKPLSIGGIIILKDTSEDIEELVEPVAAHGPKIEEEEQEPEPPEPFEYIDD
# [16] = protein SYNCRIP (O60506), Exp Comp, analysis C6, p 0.0625, 5 peptides
# [17] = protein GSTP1 (P09211), Exp Comp, analysis C6, p 0.5000, 2 peptides
# [18] = protein PSMA4 (P25789), Exp Comp, analysis C6, p 0.0625, 5 peptides
# [19] = protein PSMD1 (Q99460), Exp Comp, analysis C6, p 0.1250, 4 peptides
smiles,measurement,setting,value
C=CS(=O)(=O)N1C[C@H](C(=O)Nc2ccc(OC(F)(F)F)cc2)C[C@@H](c2ccccc2)C1 [3a],enrich.exp.med,[1],0.583
same,enrich.exp.med,"[2]; Comp, protein SYNCRIP O60506",1.48
same,enrich.exp.med.lin,[2]; [16],2.7903
same,enrich.exp.med.log2,[2]; [16],1.48
same,enrich.exp.med,[3],0.6101
same,enrich.exp.med,[4],0.6321
same,enrich.exp.med,[5],0.6024
same,enrich.exp.med,"[6]; Comp, protein GSTP1 P09211",0.9589
same,enrich.exp.med.lin,[6]; [17],1.9438
same,enrich.exp.med.log2,[6]; [17],0.9589
same,enrich.exp.med,[7],0.6961
same,enrich.exp.med,"[8]; Comp, protein PSMA4 P25789",0.9624
same,enrich.exp.med.lin,[8]; [18],1.949
same,enrich.exp.med.log2,[8]; [18],0.9624
same,enrich.exp.med,[9],0.7149
same,enrich.exp.med,[10],0.7263
same,enrich.exp.med,[11],0.8256
same,enrich.exp.med,[12],0.678
same,enrich.exp.med,[13],0.6186
same,enrich.exp.med,[14],0.6553
same,enrich.exp.med,"[15]; Comp, protein PSMD1 Q99460",0.9459
same,enrich.exp.med.lin,[15]; [19],1.926
same,enrich.exp.med.log2,[15]; [19],0.9459
